Measurements from US20020032220A1, “Formulations comprising dissolved paroxetine” (SmithKline Beecham plc, priority 1997, published 2002).
Counter-ions that a name gives are not always drawn.

Assay: Solubility testing of paroxetine hydrochloride in liquid carriers/solvents
Format: physicochemical
Source text: Since solid paroxetine forms are in general only sparingly soluble in common solvents, the solvents which are acceptable for use in capsules and for administration to patients need to be subjected to routine solubility testing to confirm that they can maintain an appropriate concentration of paroxetine. In addition, higher loadings of a paroxetine form in a suitable solvent may be achieved by using conventional physical techniques such as heating, shaking and sonication. Alternatively good solvents for paroxetine may be used in small amounts as cosolvents to solubilize paroxetine in liquids that are acceptable for capsule use but in which paroxetine is poorly soluble. Solubilising agents such as the polysorbates, the poloxamers, cyclodextrins, ionic and non-ionic surface active agents, for example Pluronic F60 and Sorbitan esters may also be used to enhance the solubility of paroxetine hydrochloride in solvents acceptable for capsule use but in which paroxetine is poorly soluble.
The term “oral swallow capsule” most suitably denotes a capsule having a maximum volume of 0.86 ml. Preferred capsules according to the present invention have a maximum volume of about 0.45 ml and more especially may lie in the range 0.2 to 0.4 ml, although capsules as small as 0.14 ml are also provided by the invention. […]

| solubility (oil or lipid, in plant oils (Sunflower, Safflower, Peanut, Soybean, Cottonseed, Corn, Castor, Apricot seed, Olive, Wheat germ, Sesame, Evening Primrose, Canola), Mineral oil, liquid paraffin, Miglyol 810/812, Oleic acid, Ethyl Oleate, Span 80/85, Labrafac lipophile, Plurol Oleique, Peceol) [µg/mL] | solubility (in words) (in Propylene Carbonate, Triacetin, Glycerol, Lauroglycol, Propylene glycol, PEG 300, Glycofurol, PEG 400, IPA, Span 20, Transcutol, Labrasol, Labrafil, Olepal, Glyceryl Linoleate (Maisine 35-1), Pharmasolve) | Structure (SMILES) |
| --- | --- | --- |
| < 10000 |  | Fc1ccc([C@@H]2CCNC[C@H]2COc2ccc3c(c2)OCO3)cc1 [paroxetine hydrochloride] |
|  | useful solubility | Fc1ccc([C@@H]2CCNC[C@H]2COc2ccc3c(c2)OCO3)cc1 [paroxetine, (−)trans isomer of 4-(4′-fluorophenyl)-3-(3′,4′-methylenedioxy-phenoxymethyl)-piperidine] |
